Entries after “also recorded” stand apart in the source; their conditions may differ.
How the values were obtained:
[1] = test system: 3D human liver microtissues; test: Fibrosing NASH model: COL1A1 (pro-collagen I) ELISA in medium 1+medium 2-treated 3D human liver microtissues; assay type: cell-based; settings: single agent, medium 1+medium 2-treated 3D liver microtissues, FIG. 9A
Text: Cryopreserved primary human hepatocytes (IPHH_11) and cryopreserved primary human non parenchymal cells (NPCs containing endothelial and Kupffer cells) (IPHN_11) were obtained from BioIVT. The cryopreserved human primary hepatic stellate cells (hHSC) were obtained from Innoprot. 3D human liver microtissues were produced with the IPHH_11, the IPHN_11 and the hHSC in a 96-well hanging-drop culture platform (Gravity PLUS™, InSphero AG). After microtissues formation, they were transferred into a microtissue-specific 96-well culture and assay platform (Gravity TRAP™, InSphero AG). Further maintenance and compound treatments were performed in Gravity TRAP™ plates. After tissue formation, the 3D microtissues were maintained in William's E medium (Gibco) supplemented with Insulin (Sigma), Transferrin (Sigma), Selenium (Sigma), Glutamine (Gibco), Dexamethasone (Sigma), HEPES (Sigma), Gentamicin (Gibco) and Amphotericin B (Sigma) at 37° C. in a humidified 5% CO2 cell culture incubator for 4 days. Half of the culture medium was replenished every 3 days.
Hepatic microtissues were treated once with a couple of carbohydrates (final concentration ranging from 1 to 100 mM), a couple of free fatty acids either saturated or unsaturated with a final concentration ranging from 100μM to 1 mM and a source of cholesterol with a concentration ranging from 1 μg/mL to 1 mg/mL (medium 1). After 2 to 5 days, microtissues were treated with a couple of carbohydrates (final concentration ranging from 1 to 100 mM), a couple of free fatty acids either saturated or unsaturated with a final concentration ranging from 100 μM to 1 mM and a source of cholesterol with a concentration ranging from 1 μg/mL to 250 μg/mL, a member of the growth factor superfamily member, a member of the TNFSF with a concentration ranging from 1 ng/mL to 1 μg/mL and a sphingolipid with a concentration ranging from 1 nM to 500 nM (medium 2). This treatment lasts from 2 to 5 days.
The level of Collal, IL-8 and MCP-1 was measured using a Sandwich ELISA, according to manufacturer's instructions provided with “Elisa Pro-Collagen I α1/COLIA1”, (DuoSet ELISA, R&D, catalog N°: DY6220-05), Elisa CXCL8/IL-8 (DuoSet ELISA, R&D, catalog N°: DY208n) and Elisa CCL2/MCP-1 (DuoSet ELISA, R&D, catalog N°: DY279) kits, respectively.
For these experiments, a checkerboard matrix was generated. ELA and component (ii) stocks were serially diluted in DMSO in 2-points series in a row (ELA) and a 3-points series in a column (component (ii)) of a 96-well plate. Subsequently, the 2×3 combination matrix was generated by 1:1 mixing of all single agent concentrations.

3D Huh7 spheroids = test: Steatosis model: AdipoRed lipid quantification in 3D Huh7 spheroids induced with first culture medium; assay type: cell-based, human; settings: 3D liver microtissue steatosis model, 6 days of treatment with test compound
Protocol: The Huh 7 human hepatocellular carcinoma cell line was seeded in William's E medium (Gibco) with 10% FBS (Gibco) at a density of 3000 cells/well in 384 well plate ULA (Corning). After a few days, spheroids are formed and cells are grown in serum-free culture medium.
William's E medium was supplemented with FFAs (oleate+palmitate, 400 μM total FFA concentration) fructose 15 mM (Sigma) and soluble cholesterol […] (Sigma). Huh7 spheroids were treated for 3 days with this medium with or without a test compound and the treatment was renewed once with or without a test compound.
Steatosis was then measured after 6 days of treatment with or without the test compound.
Lipid Staining and Quantification Intracellular lipid accumulation was quantified using the AdipoRed™ Adipogenesis Assay Reagent (Lonza). Cells were visualized under epifluorescence microscope and then subjected to fluorescence assay quantification at λexc: 485 nm and λem: 572 nm, using plate reader (TECAN).

Structure (SMILES) | inhibition of COL1A1 secretion (collagen release) ([1]; high dose 3 μM) | antisteatotic activity (lipid content, AdipoRed signal) (3D Huh7 spheroids) | inhibition of COL1A1 secretion (collagen release) ([1]; high dose 3 μM, listed as ELA) | inhibition of COL1A1 secretion (collagen release) ([1]; high dose 1 μM)
O=C(c1c2ccccc2cc2ccccc12)N1CCC(N2CCC[C@@H](C(=O)N3CCOCC3)C2)CC1 [CP-640186] | the release of collagen was affected; also recorded: inhibition of COL1A1 secretion | antisteatotic activity | – | –
CSc1ccc(C(=O)/C=C/c2cc(C)c(OC(C)(C)C(=O)O)c(C)c2)cc1 [Elafibranor] | inhibition of COL1A1 secretion | – | the release of collagen was affected | –
COc1ccccc1[C@H](Cn1c(=O)n(C(C)(C)C(=O)O)c(=O)c2c(C)c(-c3ncco3)sc21)OC1CCOCC1 [GS-0976] | – | antisteatotic activity | – | the release of collagen was affected; also recorded: inhibition of COL1A1 secretion
COc1cc(C(=O)N2CCC3(CC2)CC(=O)c2cc(-c4cncc(C(=O)O)c4)ccc2O3)cc2c1c(C)cn2C1CC1 [MK-4074] | – | antisteatotic activity | – | –

Source: patent publication US20220056419A1, “IN VITRO MODEL OF LIVER STEATOSIS AND FIBROSING NON-ALCOHOLIC STEATOHEPATITIS” (GENFIT, priority 2018, published 2022)
